Article PMC8512555, “Patient-Derived Tumor Chemosensitization of GKB202, an Antrodia Cinnamomea Mycelium-Derived Bioactive Compound” (Molecules, 2021)

Assays:
Type in all cases: cell-based, human
[1] = tested on: hepatocellular carcinoma (HCC) patient-derived circulating tumor cells; experiment: Ex vivo viability assay (CellTiter-Glo) on patient-derived CTC spheroids, hepatocellular carcinoma; details: 6 days; for anti-CTC effect compared with the 5-FU group: 4 and 20 µg/mL; for relative survival rate: vs untreated control cells
Experimental: (§1) Patients who were diagnosed with oral cancer (OC), hepatocellular carcinoma (HCC) and colorectal cancer (CRC) with stage III or IV were recruited and provided written informed consent to participate in this study. For patients enrolled, clinical profiles including initial cancer staging, medication information, and treatment responses were recorded. Peripheral blood (7.5 mL) was collected in vacated ethylenediaminetetraacetic acid (EDTA) tubes and peripheral blood mononuclear cells (PBMCs) were isolated by gradient gravity centrifugation using Ficoll-Paque. Blood was added to a LeucoSep tube filling with 15 mL of Ficoll-Paque Plus in the bottom of the frit and centrifuged to obtain the PBMC fraction. Then PBMC was resuspended in phosphate-buffered saline (PBS) containing 1% BSA, 2 mM EDTA where CTC was enriched by RosetteSep® CTC Enrichment Cocktail kit. Briefly, the PBMC pellet is incubated with antibodies at room temperature, followed by the addition of PBS containing 2% FBS to the diluted sample. The diluted sample was added on the top of Ficoll-Paque for another centrifugation, then enriched cells were obtained and suspended in DMEM/F12 medium containing EGF, bFGF, and B27 supplement. Cells were seeded onto a substrate of binary colloidal crystals (BCCs). The structure of BCCs has been reported for its ability to enhance the expansion of rare cancer cells. The medium was replaced in each well every four days. Tumor-derived CTC spheroids were checked by optical microscopy.
(§2) To test the anti-tumor activity of natural compounds, CTC spheroids were allowed to grow for four weeks then spheroids were collected to seed into other BCC plates and incubated for 16 h. Two chemotherapy drugs used as the positive control including 5-FU (30 µM), Cisplatin (14.4 µM), GKA201, GKB202 and GKC203 (4 µg/mL and 20 µg/mL) were added to cells and incubated for six days. Cell viability was determined by a CellTiter-Glo® Luminescent Cell Viability Assay (Promega Corporation, Madison, WI, US) where cells were incubated with a Cell-Titer Glo reagent for 10 min and the luminescence was read on a GloMax® Navigator Microplate Luminometer (Promega Corporation, Madison, WI, US). The relative cell viability was calculated as the percentage of cells treated with drugs or natural compounds compared with untreated control cells.

[2] = tested on: oral cancer (OC) patient-derived circulating tumor cells; experiment: Ex vivo viability assay (CellTiter-Glo) on patient-derived CTC spheroids, oral cancer; details: for anti-CTC effect compared with the 5-FU group: 4 and 20 µg/mL; for anti-CTC effect compared with the 5-FU group / relative survival rate: 6 days; for relative survival rate: vs untreated control cells; for drug sensitivity of OC patient organoids: Cisplatin and Carboplatin at the same concentration, Figure S3
Experimental: as §1, §2

[3] = tested on: colorectal cancer (CRC) patient-derived circulating tumor cells; experiment: Ex vivo viability assay (CellTiter-Glo) on patient-derived CTC spheroids, colorectal cancer; details: 6 days; for anti-CTC effect compared with the 5-FU group: 4 and 20 µg/mL; for relative survival rate: vs untreated control cells
Experimental: as §1, §2

Row | SMILES | anti-CTC effect compared with the 5-FU group [1] | anti-CTC effect compared with the 5-FU group [2] | anti-CTC effect compared with the 5-FU group [3] | drug sensitivity of OC patient organoids [2] | also measured
1 | CC(C)=CCOc1ccc(C2=C(CC(C)C)C(=O)N(O)C2=O)cc1 [GKC203] | no significance | no significance | no significance |  | 
2 | CC(C)=CCOc1ccc(C2=C(CC(C)C)C(=O)OC2=O)cc1 [GKA201] | no significance | no significance | no significance |  | 
3 | N.N.[Cl][Pt][Cl] [Cisplatin] |  |  |  | sensitive | relative survival rate ([1]; Cisplatin 14.4 µM): 28 ± 5.8%; relative survival rate ([2]; Cisplatin 14.4 µM): 21 ± 0.3%; relative survival rate ([3]; Cisplatin 14.4 µM): 49 ± 10%
4 | O=c1[nH]cc(F)c(=O)[nH]1 [5-FU] |  |  |  |  | relative survival rate ([1]; 5-FU 30 µM): 43 ± 2%; relative survival rate ([2]; 5-FU 30 µM): 51 ± 13%; relative survival rate ([3]; 5-FU 30 µM): 49 ± 13%
5 | N.N.O=C([O-])C1(C(=O)[O-])CCC1.[Pt+2] [Carboplatin] |  |  |  | resistant | 
